Laboratory results reported in ChEMBL document CHEMBL3885881, “DrugMatrix”.

Species on record: Rattus norvegicus
Assay: DrugMatrix - Regimen: Daily Repeat
Assay type: toxicity, organism-based, Sprague-Dawley
Set-up: regimen Daily Repeat, gender Male, age 6-8 weeks
Conditions: in vivo, po, route oral GAVAGE, vehicle 100 % WATER; for ABSOLUTE BASOPHIL / ABSOLUTE EOSINOPHIL / ABSOLUTE LYMPHOCYTE / ABSOLUTE MONOCYTE / ABSOLUTE SEGMENTED NEUTROPHIL / BASOPHIL / EOSINOPHIL / ERYTHROCYTE COUNT / HEMATOCRIT / HEMOGLOBIN / LEUKOCYTE COUNT / LYMPHOCYTE / MEAN CORPUSCULAR HEMOGLOBIN / MEAN CORPUSCULAR HEMOGLOBIN CONCENTRATION / MEAN CORPUSCULAR VOLUME / MONOCYTE / NEUTROPHIL / NUCLEATED RED BLOOD CELLS / PLATELET COUNT: tissue Blood; for ALANINE AMINOTRANSFERASE / ALBUMIN / ALKALINE PHOSPHATASE / ASPARTATE AMINOTRANSFERASE / BLOOD UREA NITROGEN / CARBON DIOXIDE / CHLORIDE / CHOLESTEROL / CREATINE PHOSPHOKINASE / CREATININE / GLUCOSE / LACTATE DEHYDROGENASE / LIPASE / PHOSPHORUS / POTASSIUM / SODIUM / TOTAL BILIRUBIN / TOTAL PROTEIN / URIC ACID: tissue Plasma
[1] = 0 mg/kg, 72 h, dose level Control, time 3 day
[2] = 0 mg/kg, 120 h, dose level Control, time 5 day
[3] = 0.3 mg/kg, 72 h, dose level Low, time 3 day

Clc1cccc(Cl)c1N=C1NCCN1 [CLONIDINE]
ABSOLUTE BASOPHIL [1]: 0 CELLS/uL | ABSOLUTE EOSINOPHIL [1]: 24 CELLS/uL | ABSOLUTE LYMPHOCYTE [1]: 13105 CELLS/uL | ABSOLUTE MONOCYTE [1]: 76 CELLS/uL | ABSOLUTE SEGMENTED NEUTROPHIL [1]: 2145 CELLS/uL | BASOPHIL [1]: 0% | EOSINOPHIL [1]: 0.17% | ERYTHROCYTE COUNT [1]: 5.81 x10E6/uL | HEMATOCRIT [1]: 35.6% | HEMOGLOBIN [1]: 13.72 G/DL | LEUKOCYTE COUNT [1]: 15.35 x10E3/uL | LYMPHOCYTE [1]: 85.5% | MEAN CORPUSCULAR HEMOGLOBIN [1]: 23.62 pg | MEAN CORPUSCULAR HEMOGLOBIN CONCENTRATION [1]: 38.55 G/DL | MEAN CORPUSCULAR VOLUME [1]: 61.23 fL | MONOCYTE [1]: 0.5% | NEUTROPHIL [1]: 13.83% | NUCLEATED RED BLOOD CELLS [1]: 0 /100WBC | PLATELET COUNT [1]: 1189.83 x10E3/uL | ALANINE AMINOTRANSFERASE [1]: 48.67 u/L | ALBUMIN [1]: 4.27 G/DL | ALKALINE PHOSPHATASE [1]: 335 u/L | ASPARTATE AMINOTRANSFERASE [1]: 86.5 u/L | BLOOD UREA NITROGEN [1]: 14.33 mg/dL | CARBON DIOXIDE [1]: 29.17 mmol/L | CHLORIDE [1]: 99.83 MEQ/L | CHOLESTEROL [1]: 71.83 mg/dL | CREATINE PHOSPHOKINASE [1]: 506.83 u/L | CREATININE [1]: 0.18 mg/dL | GLUCOSE [1]: 162.17 mg/dL | LACTATE DEHYDROGENASE [1]: 264.5 u/L | LIPASE [1]: 9.67 u/L | PHOSPHORUS [1]: 11.92 mg/dL | POTASSIUM [1]: 6.55 MEQ/L | SODIUM [1]: 141.53 MEQ/L | TOTAL BILIRUBIN [1]: 0.18 mg/dL | TOTAL PROTEIN [1]: 5.87 G/DL | URIC ACID [1]: 1.67 mg/dL | ABSOLUTE BASOPHIL [2]: 0 CELLS/uL | ABSOLUTE EOSINOPHIL [2]: 25.33 CELLS/uL | ABSOLUTE LYMPHOCYTE [2]: 15680 CELLS/uL | ABSOLUTE MONOCYTE [2]: 92.33 CELLS/uL | ABSOLUTE SEGMENTED NEUTROPHIL [2]: 2102.33 CELLS/uL | BASOPHIL [2]: 0% | EOSINOPHIL [2]: 0.17% | ERYTHROCYTE COUNT [2]: 6 x10E6/uL | HEMATOCRIT [2]: 35.55% | HEMOGLOBIN [2]: 14.12 G/DL | LEUKOCYTE COUNT [2]: 17.9 x10E3/uL | LYMPHOCYTE [2]: 87.33% | MEAN CORPUSCULAR HEMOGLOBIN [2]: 23.65 pg | MEAN CORPUSCULAR HEMOGLOBIN CONCENTRATION [2]: 39.77 G/DL | MEAN CORPUSCULAR VOLUME [2]: 59.52 fL | MONOCYTE [2]: 0.5% | NEUTROPHIL [2]: 12% | NUCLEATED RED BLOOD CELLS [2]: 0.17 /100WBC | PLATELET COUNT [2]: 1325.67 x10E3/uL | ALANINE AMINOTRANSFERASE [2]: 56.17 u/L | ALBUMIN [2]: 4.23 G/DL | ALKALINE PHOSPHATASE [2]: 371.5 u/L | ASPARTATE AMINOTRANSFERASE [2]: 91 u/L | BLOOD UREA NITROGEN [2]: 15.33 mg/dL | CARBON DIOXIDE [2]: 27.67 mmol/L | CHLORIDE [2]: 99.5 MEQ/L | CHOLESTEROL [2]: 66.5 mg/dL | CREATINE PHOSPHOKINASE [2]: 518.5 u/L | CREATININE [2]: 0.18 mg/dL | GLUCOSE [2]: 143.33 mg/dL | LACTATE DEHYDROGENASE [2]: 238.83 u/L | LIPASE [2]: 9.33 u/L | PHOSPHORUS [2]: 10.68 mg/dL | POTASSIUM [2]: 6.5 MEQ/L | SODIUM [2]: 141.88 MEQ/L | TOTAL BILIRUBIN [2]: 0.18 mg/dL | TOTAL PROTEIN [2]: 6 G/DL | URIC ACID [2]: 1.63 mg/dL | ABSOLUTE BASOPHIL [3]: 0 CELLS/uL | ABSOLUTE EOSINOPHIL [3]: 0 CELLS/uL | ABSOLUTE LYMPHOCYTE [3]: 15419.33 CELLS/uL | ABSOLUTE MONOCYTE [3]: 122.67 CELLS/uL | ABSOLUTE SEGMENTED NEUTROPHIL [3]: 2191.33 CELLS/uL | BASOPHIL [3]: 0% | EOSINOPHIL [3]: 0% | ERYTHROCYTE COUNT [3]: 5.84 x10E6/uL | HEMATOCRIT [3]: 35.27% | HEMOGLOBIN [3]: 13.6 G/DL | LEUKOCYTE COUNT [3]: 17.73 x10E3/uL | LYMPHOCYTE [3]: 87% | MEAN CORPUSCULAR HEMOGLOBIN [3]: 23.23 pg | MEAN CORPUSCULAR HEMOGLOBIN CONCENTRATION [3]: 38.57 G/DL | MEAN CORPUSCULAR VOLUME [3]: 60.37 fL | MONOCYTE [3]: 0.67% | NEUTROPHIL [3]: 12.33% | NUCLEATED RED BLOOD CELLS [3]: 0 /100WBC | PLATELET COUNT [3]: 1290.67 x10E3/uL | ALANINE AMINOTRANSFERASE [3]: 45.33 u/L | ALBUMIN [3]: 3.9 G/DL | ALKALINE PHOSPHATASE [3]: 319 u/L | ASPARTATE AMINOTRANSFERASE [3]: 93.67 u/L | BLOOD UREA NITROGEN [3]: 18.33 mg/dL | CARBON DIOXIDE [3]: 27.33 mmol/L | CHLORIDE [3]: 101.67 MEQ/L | CHOLESTEROL [3]: 75 mg/dL | CREATINE PHOSPHOKINASE [3]: 321.67 u/L | CREATININE [3]: 0.19 mg/dL | GLUCOSE [3]: 140.33 mg/dL | LACTATE DEHYDROGENASE [3]: 166 u/L | LIPASE [3]: 9.67 u/L | PHOSPHORUS [3]: 10.43 mg/dL | POTASSIUM [3]: 6.56 MEQ/L | SODIUM [3]: 141.9 MEQ/L | TOTAL BILIRUBIN [3]: 0.17 mg/dL | TOTAL PROTEIN [3]: 5.63 G/DL | URIC ACID [3]: 1.87 mg/dL
